# Laboratory results reported in patent US5317015A, “Azacyclic bisphosphonates as anticholesterolemic agents” (Rhone-Poulenc Rorer Pharmaceuticals Inc., priority 1992, dated 1994).
# Molecular target: T1, squalene synthetase (Rattus norvegicus, UniProt Q02769)
# T1 construct: The brown outer microsomal layer is carefully removed with a spatula and placed in a beaker on ice; from tissue; host or cells: liver microsomes of male Sprague-Dawley rats (105,000 g pellet, washed, not purified)
# T1 sequence (Q02769 1-416): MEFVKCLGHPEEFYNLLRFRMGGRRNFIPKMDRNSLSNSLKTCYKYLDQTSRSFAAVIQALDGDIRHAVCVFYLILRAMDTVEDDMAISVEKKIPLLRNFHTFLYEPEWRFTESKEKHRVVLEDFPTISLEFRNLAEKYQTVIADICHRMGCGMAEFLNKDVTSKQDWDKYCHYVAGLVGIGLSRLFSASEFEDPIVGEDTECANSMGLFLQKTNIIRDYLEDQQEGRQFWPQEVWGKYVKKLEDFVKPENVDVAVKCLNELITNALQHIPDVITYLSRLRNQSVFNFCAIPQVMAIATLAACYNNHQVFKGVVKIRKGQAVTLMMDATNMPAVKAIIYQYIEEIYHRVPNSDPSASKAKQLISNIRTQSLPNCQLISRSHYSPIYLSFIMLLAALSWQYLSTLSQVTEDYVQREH
# Test: Squalene Synthetase Inhibition Assay (SQ SYN)
# Format: biochemical, rat (Sprague-Dawley)
# Details: rat liver microsomes, 10 μM 3H-FPP, 0.5 mM β-NADPH, pH 7.5, 10 min preincubation and 10 min incubation, 37° C.
# Text: These tests involve such factors as the effect of the compounds of Formula I to inhibit squalene synthesis.
# Squalene Synthetase Inhibition Assay
# The squalene synthetase assay used is a modification of the procedures described by Popjak (1969) and Poulter et al. (1989):
# Popjak, G. Enzymes of sterol biosynthesis in liver and intermediates of sterol biosynthesis. Meth. Enzymol. 15: 393-454, 1969.
# Poulter, C. D., Capson, T. L., Thompson, M. D. and Bard R. S. Squalene synthetase. Inhibition by ammonium analogues of carbocationic intermediates in the conversion of presqualene diphosphate to squalene. J. Am. Chem. Soc. 111: 3734-3739, 1989.
# I. Animal Source and Tissue Preparation
# Four male Sprague-Dawley rats weighing 100-120 gms are fed a low cholesterol rodent diet (#5012) obtained from Purina Mills, Inc. in Richmond, Ind.; and housed under reverse-light. Water is given ad lib. Rats are lightly anesthetized with ether and then decapitated. Livers are removed and enzymes are separated by the method described below.
# All Chemicals are "A.C.S." in purity or better unless noted;
# AquaSol®-2 scintillation fluid (NEF-952) (Du Pont/NEN Research Products, Boston, Mass.);
# Anhydrous MgCl2 (M-8266), β-NADPH tetrasodium salt, reduced form (N-1630), Bovine serum albumin (A-6003), Cholesterol (C-8503);
# Squalene (S-3626), (Sigma Chemical Co., St. Louis, Mo.);
# Bio-Rad protein assay dye concentrate (Bio-Rad Laboratories, Richmond, Calif.);
# Denatured ethanol, DMSO, HCl (1N), KOH, methanol, NaOH (0.1N, 1N), petroleum ether (M-280 grade), potassium phosphate dibasic, 2-propanol (Fisher Scientific, Pittsburgh, Pa.);
# Zero grade nitrogen gas mixture (certified analysis) (Woodland Oxygen & Supply Co., Philadelphia, Pa.).
# [1-^3 H(N)]-FPP, triammonium salt (NET-1042), (Du Pont/NEN, Boston, Mass.);
# Non-radiolabeled FPP is prepared in-house. The solid FPP is aliquoted and stored at -80° C. FPP is dissolved in 70% ethanol/30% 0.25M NH4 HCO3 at the concentration of 10 mM and the solution is aliquoted (200 μl each) and stored at -80° C.
# III. Preparation of Assay Substances
# Test solutions are prepared fresh in 100% DMSO or dH2 O. Subsequent dilutions are made in the same solvent. Compounds are tested initially at 1 or 10 μM (final concentrations).
# Potassium phosphate (50 mM, 8.71 g/l) pH 7.5 stock buffer is prepared and stored at 4° C. until use. Anhydrous MgCl2 is added to the phosphate buffer on the day of assay for a final concentration of 10 mM (95 mg/100 ml). The buffer is flushed with N2 before use.
# Non-radiolabeled FPP is diluted to 50 μM (100 μl 10 mM cold FPP+19.9 ml phosphate buffer). Then, 14 μl (20×10^6 dpm) of ^3 H-FPP (0.5 mCi/ml, 0.011 mg/ml) is added. 200 μl of this mixture is added per assay tube for a final reaction concentration of 10 μM FPP (~200,000 dpm/assay tube).
# 37.5 mg of β-NADPH is added to 9 ml assay buffer for a 5 mM concentration of β-NADPH. The mixture is vortexed and 100 μl of this solution is added to each tube for a final assay concentration of 0.5 mM β-NADPH.
# 75 gm of KOH is dissolved in 500 ml of denatured ethanol for a 15% solution and stored at 0° C. until use. 1 ml of this solution is added per tube to terminate the reaction.
# IV. Experimental Procedure
# Immediately following decapitation, livers are removed one at a time from four rats. The livers are combined and weighed in a tared beaker. Assay buffer is added equal to three times the liver weight. The liver is first homogenized with a blender for thirty seconds, and then by a motor driven teflon pestle at a speed of 2.5. During homogenization, the liver is kept on ice. When the liver is fully homogenized, the homogenate is centrifuged at 10,000 g for 30 min at 4° C. in 50 ml capacity centrifuge tubes. The mitochondrial pellet is discarded and the supernatant is filtered through a layer of gauze moistened with a little buffer. This supernatant is recentrifuged at 105,000 g for one hour at 0° C. in an ultracentrifuge in 25 ml capacity ultracentrifuge tubes. […]
row,IC50 [nM],Structure (SMILES)
1,130,O=P(O)(O)C(O)(CCNC1CCCc2ccccc21)P(=O)(O)O (centres unmarked)
2,600,O=P(O)(O)C(O)(CCNC1CC2CCC1C2)P(=O)(O)O (centres unmarked)
3,2300,O=P(O)(O)C(O)(CCNC1CCN(Cc2ccccc2)CC1)P(=O)(O)O
4,60,O=P(O)(O)C(O)(CCNC1CCc2ccccc21)P(=O)(O)O (centres unmarked)
5,5060,CC1(C)CC2CC(C)(CN2CCC(O)(P(=O)(O)O)P(=O)(O)O)C1 (centres unmarked)
6,370,O=P(O)(O)C(O)(CCN1CCC(c2ccccc2)CC1)P(=O)(O)O
7,130,O=P(O)(O)C(O)(CCN1CCCCCC1)P(=O)(O)O
8,440,O=P(O)(O)C(O)(CCNC1C2CC3CC(C2)CC1C3)P(=O)(O)O (centres unmarked)
9,390,O=P(O)(O)C(O)(CCN1CCC2(CCCCC2)CC1)P(=O)(O)O
10,19,O=P(O)(O)C(O)(CCN1CCCC2CCCCC21)P(=O)(O)O (centres unmarked)
11,1460,O=P(O)(O)C(O)(CCNCC1CCCCCC1)P(=O)(O)O
12,720,O=P(O)(O)C(O)(CCN1CCCCC1)P(=O)(O)O

row,Structure (SMILES),IC50 [nM]
1,O=P(O)(O)C(O)(CCN1CC2CCC(CC2)C1)P(=O)(O)O,16

# System: 1,4-condensation between isopentenyl diphosphate and geranyl diphosphate
# Test: not given
# Details: J. Am. Chem. Soc., 1987, 109, 5544; cited from earlier work
row,Structure (SMILES),"inhibition of the 1,4-condensation (in words)"
1,C=C(C)CCCP(=O)(O)CP(=O)(O)O,competitive inhibitors
